Assay [1] can be described thus: Evaluation of the cuticular region of hair fibers by scanning electron microscopy (SEM). The settings on record: conditioner plus 1% active; bleached and dyed fibers; 1100x. The procedure: The tests to evaluate the effectiveness of the shine on locks of hair were carried out with standardized fibers of straight, dark brown hair, provided by International Hair Importers— USA.
The locks were washed with anti-residue shampoo and dried naturally (24±1h).
After the pre-treatment, the locks of hair from the groups G1, G2, G3 and G4 (average weight of 2 g per lock), were subjected to the process of chemical bleaching.
To carry out the process, a bleaching mixture was prepared with 15 g of bleaching powder and 30 g of hydrogen peroxide 30 volumes. This mixture was evenly applied to the locks of hair. After application, the locks were wrapped in aluminum foil and left to rest for 45 minutes. After the time of action of the bleaching mixture, the locks were washed and rinsed abundantly with running water (2 minutes) and received the application of a standard conditioner. After 2 minutes of rest, for the conditioner to work, the locks were rinsed again. The locks were dried with hot air from the dryer.
The whole process was repeated two more times, totaling three bleachings. […]
The evaluation of the surface of the hair fibers (cuticle region) was performed using a scanning electron microscope (SEM), model 6460 LV (JEOL). The study is based on capturing images (1100× magnification) of 10 capillary fibers randomly selected from the evaluated groups. […]

A short description of assay [2]: Shine evaluation of hair locks treated with conditioner (SAMBA Hair System, Reich-Robbins luster). The procedure:
The tests for evaluating the effectiveness in the shine of locks of hair were carried out with standardized fibers of CaucasianU, brown, straight hair, supplied by International Hair Importers— USA, model most used for these types of tests (Table 1).
The locks were washed with anti-residue shampoo and dried naturally (24±1h) before treatment.
The formulations were applied according to the protocol described below: For the locks in group G1 (Control), shampoo was applied in a standardized amount of SLES solution (8.1% active) on wet hair and gently massaged for 1 minute. Then rinsed for 1 minute.
For locks in group G2 (Placebo) and with the actives: G3 (Ricinoleamide), G4 (Cyclometicone), G5 (Phenyltrimethicone), G6 (Dimethicone), G7 (Aminopropyl phenyltrimethicone) and G8 (Propylene glycol dibenzoate) and G9 (Ricinoleate mono- and diesters), shampoo was applied in a standardized amount of placebo/standard shampoo to wet hair and gently massaged for 1 minute. Then rinsed for 1 minute. After rinsing the hair, the conditioner (3.0±0.2 g) was applied to the entire length of the hair, massaging and untangling the hair. Leaving the product to act for 2 minutes and it was rinsed for 1 minute. This protocol was repeated once, and then four more times, for all groups according to their specific treatment, described in Table 1.
The locks were kept in a controlled environment at 23±2° C. and 50±5% relative humidity (R. H.), for at least 24 hours before the tests were started. The entire test period was carried out under the same environmental conditions.
The evaluation of hair shine was performed on three locks per group, using the equipment SAMBA Hair System of the company Bossa Nova Technologies, USA.
The locks of hair were positioned on a cylindrical support that slides into the interior of the equipment, in order to carry out the measurements.
The equipment successively captures two parallel images of the locks of hair. Specular image and diffuse image. The specular image is formed only by the light reflected by the hair surfaces (first and second) of reflection. This image contains the brightness information. The diffused image (diffuse) is formed only by the scattered light coming from inside the hair.
The SAMBA system program calculates parameters associated with the reflection and refraction of light, the most used parameter is Luster, which evaluates the real state and quality of the brightness of the object under study. This parameter can be calculated simultaneously through different formulas, and for this study the analysis data obtained by the Reich-Robbins formula was used.
For the statistical evaluation of the tests, analysis of variance (ANOVA) was used. Tukey's test was applied when analysis of variance detected significant differences between the groups. For comparative tests between before and after the same sample, the t-Test (Student) was used.

In the case of `CCCCCC[C@@H](O)C/C=C\CCCCCCCC(N)=O` [Ricinoleamide, ricinoleamide], in assay [1], the “integrity of the cuticular region (subjective SEM evaluation) vs Control and Placebo” value is given as “greater preservation of the cuticular region”. The “difference of shine value greater than Amino pfenyltrimethicone group” value in assay [2] (conditioner with 1% active, one treatment, vs Amino pfenyltrimethicone (1%)) was 93.4%. For the same compound, the “difference of shine value (after minus before one treatment) greater than Control group” value in assay [2] (conditioner with 1% active, one treatment, vs Control (SLES wash)) was 78.4%. In assay [2] (conditioner with 1% active, one treatment, vs Cyclomethicone (1%)), the “difference of shine value greater than Cyclomethicone group” value is 78.4%. Also, in assay [2] (conditioner with 1% active, one treatment, vs Dimethicone (1%)), the “difference of shine value greater than Dimethicone group” value was found to be 52.7%. The “difference of shine value greater than Phenyltrimethicone group” value in assay [2] (conditioner with 1% active, one treatment, vs Phenyltrimethicone (1%)) is 56.7%. In assay [2] (conditioner with 1% active, one treatment, vs Placebo conditioner), the “difference of shine value greater than Placebo group” value is 84%. In addition, the “difference of shine value greater than Propilene glycol dibenzoate group” value in assay [2] (conditioner with 1% active, one treatment, vs Propilene glycol dibenzoate (1%)) is given as 95.1%. Moreover, the “difference of shine value greater than ricinoleate mono- and diesters group” value in assay [2] (conditioner with 1% active, one treatment, vs ricinoleate mono- and diesters (1%)) is 54.0%. In assay [2] (same concentrations, FIG. 1), the “efficiency in providing increased shine in the first application compared to other compounds” value is on record as “greater efficiency”.
With phenyltrimethicone [reference compound], the “integrity of the cuticular region (subjective SEM evaluation) vs Control and Placebo” value in assay [1] is “preservation of the cuticular region”.

Source of the values: US20230255869A1, “FATTY ACID DERIVATIVE, PRODUCTION PROCESS THEREFOR, HAIR COMPOSITION AND HAIR-TREATMENT METHOD” (CHEMYUNION LTDA., priority 2020, published 2023).
